Test results taken from patent publication US10626126B2, “Compounds” (Pulmocide Limited, priority 2016, dated 2020).

Key:
Type in all cases: cell-based
[1] = test system: RSV B Washington strain; test: RSV B induced CPE in HEp2 cells; details: human respiratory syncytial virus; for IC50: HEp-2, 144 h, 6 days; for inhibition at 0.1 µg/mL: HEp-2, at 0.1 μg/mL; for inhibition at 1 µg/mL: HEp-2, at 1 μg/mL
Procedure: (§1) HEp2 cells were seeded (10^3/well/50 μL) in 384-well plates (Catalogue number 353962, BD Falcon, Oxford, UK) in 5% FBS-DMEM (containing 2 mM L-glutamine and 1 mM sodium pyruvate) one day before infection. […] Simultaneously, test compounds (0.5 μL DMSO solution) were added to 100 μL of HEp2 cell culture with virus solution to provide a final DMSO solution of 0.5%. […] Sigma-Aldrich, Dorset, UK) was added to each well and the plate incubated for a further 6 hr (37° C./5% CO2). The fluorescence of each well [545 nm (excitation)/590 nm (emission)] was determined using a multi-scanner (Clariostar: BMG, Buckinghamshire, UK). The percentage inhibition for each well was calculated and the IC50, IC75 and IC90 values were calculated from the concentration-response curve generated for each test compound.

[2] = Cell viability: resazurin assay; details: human, HEp2 cells
Procedure: HEp2 cells were seeded in 384-well plates (10^3/well/50 μL; BD Falcon Ref 353962) in FBS DMEM (5%, containing 2 mM L-glutamine and 1 mM sodium pyruvate) one day before experimentation. Serum-free DMEM (50 μL) was added to test wells, while for control wells the media was removed and sterile water (100 μL) added. Test compounds (0.5 μL DMSO solution) were added to give a final DMSO concentration of 0.5%. HEp2 cells were incubated with each test compound for 5 days (37° C./5% CO2 in 2.5% FBS) and then resazurin stock solution (5 μL; 0.03%) was added to each well and the plate incubated for a further 6 hr (37° C./5% CO2). The fluorescence of each well at 545 nm (excitation) and 590 nm (emission) was determined using a multi-scanner (Clariostar: BMG Labtech). The percentage loss of cell viability was calculated for each well relative to vehicle (0.5% DMSO) treatment. Note that any apparent increase in cell viability associated with test compound treatment relative to vehicle is consequently tabulated as a negative percentage. Where appropriate, a CC50 value was calculated from the concentration-response curve generated from the concentration-response curve for each test compound.

[3] = test system: RSV A2 strain; test: RSV A2 induced CPE in HEp2 cells; details: human respiratory syncytial virus; for IC50: HEp-2, 120 h, 5 days; for inhibition at 0.01 µg/mL: HEp-2, at 0.01 μg/mL
Procedure: as §1

| IC50 [1] [nM] | IC50 [3] [nM] | SMILES | inhibition at 0.1 µg/mL [1] [%] | CC50 at 5 days [2] [nM] | inhibition at 0.01 µg/mL [3] [%] | inhibition at 1 µg/mL [1] [%] |
| --- | --- | --- | --- | --- | --- | --- |
| 11 | 0.54 | Cc1cccc(F)c1NC(=O)c1cc2c(s1)-c1sccc1N(C(=O)c1ccc(NC(=O)c3cc4c(nc3N3CC5(CCOCC5)C3)CCC4)cc1)CC2 [Example 24, 4-(4-(2-(7-oxa-2-azaspiro[3.5]nonan-2-yl)-6,7-dihydro-5H-cyclopenta[b]pyridine-3-carboxamido)benzoyl)-N-(2-fluoro-6-methylphenyl)-5,6-dihydro-4H-dithieno[3,2-b:2′,3′-d] azepine-8-carboxamide] | 84 | > 13400 | 98 |  |
| 18 | 0.28 | Cc1cc(C(=O)Nc2ccc(C(=O)N3CCc4cc(C(=O)Nc5c(F)cccc5F)sc4-c4sccc43)cc2)c(N2CC3(CCOCC3)C2)nc1C [Example 4, N-(2,6-Difluorophenyl)-4-(4-(5,6-dimethyl-2-(7-oxa-2-azaspiro[3.5]nonan-2-yl)nicotinamido)benzoyl)-5,6-dihydro-4H-dithieno[3,2-b:2′,3′-d]azepine-8-carboxamide] | 98 | > 13500 | 96 |  |
| 86 | 0.3 | Cc1cnc(N2CC3(CCOCC3)C2)c(C(=O)Nc2ccc(C(=O)N3CCc4cc(C(=O)Nc5c(O)cccc5F)sc4-c4sccc43)cc2)c1 [Example 15, N-(2-fluoro-6-hydroxyphenyl)-4-(4-(5-methyl-2-(7-oxa-2-azaspiro[3.5]nonan-2-yl)nicotinamido)benzoyl)-5,6-dihydro-4H-dithieno[3,2-b:2′,3′-d]azepine-8-carboxamide] |  | > 13800 | 100 | 90 |
| 97 | 2.6 | O=C(Nc1c(F)cccc1F)c1cc2c(s1)-c1sccc1N(C(=O)c1ccc(NC(=O)c3cccnc3N3CC4(CCOCC4)C3)cc1F)CC2 [Example 7, 4-(4-(2-(7-oxa-2-azaspiro[3.5]nonan-2-yl)nicotinamido)-2-fluorobenzoyl)-N-(2,6-difluorophenyl)-5,6-dihydro-4H-dithieno[3,2-b:2′,3′-d]azepine-8-carboxamide] |  | > 13700 | 87 | 82 |
| 18 | 0.17 | COc1cnc(N2CC3(CCOCC3)C2)c(C(=O)Nc2ccc(C(=O)N3CCc4cc(C(=O)Nc5c(F)cccc5F)sc4-c4sccc43)cc2)c1 [Example 20, N-(2,6-difluorophenyl)-4-(4-(5-methoxy-2-(7-oxa-2-azaspiro[3.5]nonan-2-yl)nicotinamido)benzoyl)-5,6-dihydro-4H-dithieno[3,2-b:2′,3′-d]azepine-8-carboxamide] | 100 | > 13500 | 100 |  |
| > 1330 | 4.4 | Cc1cnc(N2CCC3(CCOCC3)CC2)c(C(=O)Nc2ccc(C(=O)N3CCc4cc(C(=O)Nc5c(F)cccc5F)sc4-c4sccc43)cc2)c1 [Example 34, N-(2,6-difluorophenyl)-4-(4-(5-methyl-2-(3-oxa-9-azaspiro[5.5]undecan-9-yl)nicotinamido)benzoyl)-5,6-dihydro-4H-dithieno[3,2-b:2′,3′-d]azepine-8-carboxamide] |  | > 13300 | 100 | 9 |
| 32 | 0.63 | O=C(Nc1c(F)cccc1F)c1cc2c(s1)-c1sccc1N(C(=O)c1ccc(NC(=O)c3cc4ccccc4nc3N3CC4(CCOCC4)C3)cc1)CC2 [Example 27, 4-(4-(2-(7-oxa-2-azaspiro[3.5]nonan-2-yl)quinoline-3-carboxamido)benzoyl)-N-(2,6-difluorophenyl)-5,6-dihydro-4H-dithieno[3,2-b:2′,3′-d]azepine-8-carboxamide] |  | > 13100 | 94 | 93 |
| 17 | 0.37 | Cc1ccc(C(=O)Nc2ccc(C(=O)N3CCc4cc(C(=O)Nc5c(F)cccc5F)sc4-c4sccc43)cc2)c(N2CC3(CCOCC3)C2)n1 [Example 21, N-(2,6-difluorophenyl)-4-(4-(6-methyl-2-(7-oxa-2-azaspiro [3.5]nonan-2-yl)nicotinamido)benzoyl)-5,6-dihydro-4H-dithieno[3,2-b:2′,3′-d]azepine-8-carboxamide] | 91 | > 13800 | 91 |  |
| 130 | 0.42 | Cc1cnc(N2CCC3(CC2)COC3)c(C(=O)Nc2ccc(C(=O)N3CCc4cc(C(=O)Nc5c(F)cccc5F)sc4-c4sccc43)cc2)c1 [Example 30, N-(2,6-difluorophenyl)-4-(4-(5-methyl-2-(2-oxa-7-azaspiro[3.5]nonan-7-yl)nicotinamido)benzoyl)-5,6-dihydro-4H-dithieno[3,2-b:2′,3′-d]azepine-8-carboxamide] |  | > 13800 | 100 | 100 |
| 602 | 0.59 | Cc1cnc(N2CC3(COC3)C2)c(C(=O)Nc2ccc(C(=O)N3CCc4cc(C(=O)Nc5c(F)cccc5F)sc4-c4sccc43)cc2)c1 [Example 32, N-(2,6-difluorophenyl)-4-(4-(5-methyl-2-(2-oxa-6-azaspiro[3.3]heptan-6-yl)nicotinamido)benzoyl)-5,6-dihydro-4H-dithieno[3,2-b:2′,3′-d]azepine-8-carboxamide] |  | > 14300 | 100 | 90 |
| 63 | 0.44 | O=C(Nc1c(F)cccc1F)c1cc2c(s1)-c1sccc1N(C(=O)c1ccc(NC(=O)c3cccnc3N3CC4(CCOCC4)C3)cc1)CC2 [Example 6, 4-(4-(2-(7-oxa-2-azaspiro[3.5]nonan-2-yl)nicotin-amido)benzoyl)-N-(2,6-difluorophenyl)-5,6-dihydro-4H-dithieno[3,2-b:2′,3′-d]azepine-8-carboxamide] |  | > 14000 | 93 | 95 |
| 123 | 0.75 | Cc1cnc(N2CC3(CCOCC3)C2)c(C(=O)Nc2ccc(C(=O)N3CCc4cc(C(=O)Nc5ccc(F)cc5F)sc4-c4sccc43)cc2)c1 [Example 10, N-(2,4-difluorophenyl)-4-(4-(5-methyl-2-(7-oxa-2-azaspiro[3.5]nonan-2-yl)nicotinamido)benzoyl)-5,6-dihydro-4H-dithieno[3,2-b:2′,3′-d]azepine-8-carboxamide] |  | > 13800 | 97 | 100 |
| 159 | 1.7 | COc1ccc(C(=O)Nc2ccc(C(=O)N3CCc4cc(C(=O)Nc5c(F)cccc5F)sc4-c4sccc43)cc2)c(N2CC3(CCOCC3)C2)n1 [Example 22, N-(2,6-difluorophenyl)-4-(4-(6-methoxy-2-(7-oxa-2-azaspiro[3.5]nonan-2-yl)nicotinamido)benzoyl)-5,6-dihydro-4H-dithieno[3,2-b:2′,3′-d]azepine-8-carboxamide] |  | > 13500 | 94 | 94 |
